Source: PMC2009657, “Mammalian cell transformation in vitro. Six tests for carcinogenicity” (British Journal of Cancer, 1978)

Test system: tester cells of the transformation assay
Conditions: not given

Compound	Toxicity in the assay
C=CCl [Vinyl chloride]	No toxicity observe(d

Test system: not given
Conditions: in vivo; cited from earlier work

Compound	Carcinogenicity, Lit.
O=[N+]([O-])c1ccc(F)c([N+](=O)[O-])c1 [2,4-Dinitrofluorobenzene]	+
Nc1cc2c3ccccc3ccc2c2ccccc12 [6-Aminochrysene]	+
c1ccc2c(c1)cc1ccc3cccc4ccc2c1c34 [3,4-Benzpyrene]	+
c1cc2cccc3c4cccc5cccc(c(c1)c23)c54 [Perylene]	-
Cycasin acetate	+
Cc1ccc(O)c(N=Nc2c(O)cc(S(=O)(=O)O)c3ccccc23)c1 [Calmagite]	-
CN(C)P(=O)(N(C)C)N(C)C [Hexamethylphosphoramide]	+
Oc1cccc2ccccc12 [1-Naphthol]	-
CC(=O)Nc1cccc2c1-c1ccccc1C2 [4-Acetylaminofluorene]	-
CN(C)c1ccc(N=Nc2ccccc2)cc1 [4-Dimethylaminoazobenzene]	+
Nc1ccc(-c2ccc(N)c(Cl)c2)cc1Cl [3,3'-Dichlorobenzidine]	+
Nc1ccc(Cc2ccc(N)c(Cl)c2)cc1Cl	+
CC/C(=C(/CC)c1ccc(O)cc1)c1ccc(O)cc1 [Diethylstilboestrol]	+
Nc1ccc(-c2ccccc2)cc1 [4-Aminobiphenyl]	+
CC(C(O)c1ccccc1)N(C)N=O (stereo not shown) [N-Nitrosoephedrine]	+
c1ccc2c(c1)ccc1cc3ccc4ccccc4c3nc12 [3,4,5,6-Dibenzacridine]	+
ClCOCCl [Bis(Chloromethyl)ether]	+
COc1ccc(N)cc1 [p-Anisidine]	-
CCOS(C)(=O)=O [Ethyl methanesulphonate]	+
C1CCC(NC2CCCCC2)CC1 [Dicyclohexylamine]	-

Compound	Carcinogenicity, Lit.
O=C(O)c1ccccc1 [Benzoic acid]	-
c1ccc2c(c1)cc1ccc3cc4ccccc4c4ccc2c1c34 [3,4,9,10-Dibenzpyrene]	+
Nc1ccc2ccc3cccc4ccc1c2c34 [3-Aminopyrene]	+
Morgan's base	+
O=C(O)CCCc1ccc(N(CCCl)CCCl)cc1 [Chlorambucil]	+
c1ccc2[nH]cnc2c1 [Benzimidazole]	-
c1ccc2cc3ccccc3cc2c1 [Anthracene]	-
c1ccc2cc(Nc3ccc(Nc4ccc5ccccc5c4)cc3)ccc2c1 [N,N'-Bis(2-naphthyl)-p-phenylenediamine]	-
C=CCc1ccc2c(c1)OCO2 [Safrole]	+
Nc1ccccc1 [Aniline]	-
Cc1c2ccccc2c(C)c2ccccc12 [9,10-Dimeuthylanthracene]	+
O=C(O)COc1ccc(Cl)cc1Cl [2,4-Dichlorophenoxyacetate]	-
CC(=O)Nc1ccc2c(c1)Cc1ccccc1-2 [2-Acetylaminofluorene]	+
c1ccc2ccccc2c1 [Naphthalene]	-
NC1CCCCC1 [Cyclohexylamine]	-
O=[N+]([O-])c1ccccc1-c1ccccc1 [2-Nitrobiphenyl]	+
O=C1c2ccccc2C(=O)c2ccccc21 [Anthraquinone]	-
Nc1ccc2c(c1)Cc1cc(N)ccc1-2 [2,7-Diaminofluorene]	+
Clc1ccc(C(c2ccc(Cl)cc2)C(Cl)(Cl)Cl)cc1 [D.D.T.]	-
Nc1ccc2ccccc2c1 [2-Naphthylamine]	+

Compound	Carcinogenicity, Lit.
O=C1c2ccccc2-c2cccc3cccc1c23 [Benzathrone]	-
Cc1ccc2cc3c(ccc4ccccc43)c3c2c1CC3 [20-Methylcholanthrene]	+
c1ccc(Nc2ccc3ccccc3c2)cc1 [N-phenyl-2-naphthylamine]	-
O=S1(=O)CCCCO1 [Butanesultone]	+
Cyanocobalamin [Cyanocobalamin (B12)]	-
Nc1ccc(-c2ccc(N)cc2)cc1 [Benzidine]	+
c1ccc(-c2ccccc2)cc1 [Biphenyl]	-
Nc1ccccc1-c1ccccc1 [2-Aminobiphenyl]	+
Cc1cc(-c2ccc(N)c(C)c2)ccc1N [3,3'-Dimethylbenzidine]	+
NN [Hydrazine]	+
O=P1(N(CCCl)CCCl)NCCCO1 (stereo not shown) [Cyclophosphamide]	+
c1ccc2cc3c(ccc4ccccc43)cc2c1 [1,2-Benzanthracene]	+
ClC1=C(Cl)[C@]2(Cl)[C@@H]3[C@@H]4C[C@@H]([C@H]5O[C@@H]45)[C@@H]3[C@@]1(Cl)C2(Cl)Cl [Dieldrin]	-
Nc1ccccc1C(=O)O [Anthranilic acid]	-
Nc1ccc(N=Nc2ccccc2)cc1 [4-Aminoazobenzene]	+
Croton oil	+
COc1cc(-c2ccc(N)c(OC)c2)ccc1N [3,3'-Dimethoxybenzidine]	+
Nc1ccc2c(ccc3c4ccccc4ccc23)c1 [2-Aminochrysene]	+
Nc1ccc2ccccc2c1S(=O)(=O)O [2-Aminonaphthalene-1-sulphonic acid]	-
CCN(CC)N=O [Diethylnitrosamine]	+
